Laboratory results from ChEMBL document CHEMBL5523746, “Discovery of Novel Peptide Antagonists Targeting GPR55 for Liver Inflammation and Fibrosis” (2024).
Bridge positions count the residues as written; N and C are the ends. Peptide text beside a SMILES is read from it.

Legend:
LX-2 [1] = experiment: Anti-fibrotic activity in human LX2 cells assessed as reduction in […] expression by measuring relative inhibition rate measured after 24 hrs incubation by Western blot analysis relative to control; assay type: functional; parameters: concentration or dose not given beside the values
LX-2 [2] = experiment: Anti-fibrotic activity in human LX2 cells assessed as reduction in COL1alpha expression by measuring relative inhibition rate measured after 24 hrs incubation by Western blot analysis relative to control; assay type: functional; parameters: concentration or dose not given beside the values

Row | SMILES | Activity (LX-2 [1]) [%] | Activity (LX-2 [2]) [%]
1 | CC(C)C[C@@H]1NC(=O)[C@H]([C@@H](C)O)NC(=O)[C@@H]2CCCN2C(=O)[C@H](CO)NC(=O)[C@H](CC(N)=O)NC(=O)[C@H](CCCCN)NC(=O)[C@H](C)NC(=O)[C@@H](N)CSSC[C@@H](C(=O)O)NC1=O (H-CAKNSPTLC-OH; disulfide 1-9) | 76.4 | 90.3
2 | CC(C)C[C@@H]1NC(=O)[C@H]([C@@H](C)O)NC(=O)[C@@H]2CCCN2C(=O)[C@H](CO)NC(=O)[C@H](C)NC(=O)[C@H](CCCCN)NC(=O)[C@H](CCCCN)NC(=O)[C@@H](N)CSSC[C@@H](C(=O)O)NC1=O (H-CKKASPTLC-OH; disulfide 1-9) | 87.7 | 132.9
3 | CC(C)C[C@@H]1NC(=O)[C@H]([C@@H](C)O)NC(=O)[C@@H]2CCCN2C(=O)[C@H](CO)NC(=O)[C@H](CC(N)=O)NC(=O)[C@H](C)NC(=O)[C@H](CCCCN)NC(=O)[C@@H](N)CSSC[C@@H](C(=O)O)NC1=O (H-CKANSPTLC-OH; disulfide 1-9) | 88.9 | 139.1
4 | CC(C)C[C@@H]1NC(=O)[C@H]([C@@H](C)O)NC(=O)[C@H](C)NC(=O)[C@H](CO)NC(=O)[C@H](CC(N)=O)NC(=O)[C@H](CCCCN)NC(=O)[C@H](CCCCN)NC(=O)[C@@H](N)CSSC[C@@H](C(=O)O)NC1=O (H-CKKNSATLC-OH; disulfide 1-9) | 91.8 | 140.1
5 | C[C@@H](O)[C@@H]1NC(=O)[C@@H]2CCCN2C(=O)[C@H](CO)NC(=O)[C@H](CC(N)=O)NC(=O)[C@H](CCCCN)NC(=O)[C@H](CCCCN)NC(=O)[C@@H](N)CSSC[C@@H](C(=O)O)NC(=O)[C@H](CCC(N)=O)NC1=O (H-CKKNSPTQC-OH; disulfide 1-9) | 82.3 | 74.6
6 | CC(C)C[C@@H]1NC(=O)[C@H]([C@@H](C)O)NC(=O)[C@@H]2CCCN2C(=O)[C@H]([C@@H](C)O)NC(=O)[C@H](CC(N)=O)NC(=O)[C@H](CCCCN)NC(=O)[C@H](CCCCN)NC(=O)[C@@H](N)CSSC[C@@H](C(=O)O)NC1=O (H-CKKNTPTLC-OH; disulfide 1-9) | 91.6 | 85.7
7 | CC(C)C[C@@H]1NC(=O)[C@H](CCC(=O)O)NC(=O)[C@@H]2CCCN2C(=O)[C@H](CO)NC(=O)[C@H](CC(N)=O)NC(=O)[C@H](CCCCN)NC(=O)[C@H](CCCCN)NC(=O)[C@@H](N)CSSC[C@@H](C(=O)O)NC1=O (H-CKKNSPELC-OH; disulfide 1-9) | 82.9 | 59.2
8 | CC(C)C[C@@H]1NC(=O)[C@H]([C@@H](C)O)NC(=O)[C@@H]2CCCN2C(=O)[C@H](CO)NC(=O)[C@H](CC(=O)O)NC(=O)[C@H](CCCCN)NC(=O)[C@H](CCCCN)NC(=O)[C@@H](N)CSSC[C@@H](C(=O)O)NC1=O (H-CKKDSPTLC-OH; disulfide 1-9) | 82.4 | 64.7
9 | C[C@@H]1NC(=O)[C@H]([C@@H](C)O)NC(=O)[C@@H]2CCCN2C(=O)[C@H](CO)NC(=O)[C@H](CC(N)=O)NC(=O)[C@H](CCCCN)NC(=O)[C@H](CCCCN)NC(=O)[C@@H](N)CSSC[C@@H](C(=O)O)NC1=O (H-CKKNSPTAC-OH; disulfide 1-9) | – | 74.1
10 | C[C@@H](O)[C@@H]1NC(=O)[C@H]([C@@H](C)O)NC(=O)[C@@H]2CCCN2C(=O)[C@H](CO)NC(=O)[C@H](CC(N)=O)NC(=O)[C@H](CCCCN)NC(=O)[C@H](CCCCN)NC(=O)[C@@H](N)CSSC[C@@H](C(=O)O)NC1=O (H-CKKNSPTTC-OH; disulfide 1-9) | 84.9 | 66.1
11 | CC(C)C[C@@H]1NC(=O)[C@H](C)NC(=O)[C@@H]2CCCN2C(=O)[C@H](CO)NC(=O)[C@H](CC(N)=O)NC(=O)[C@H](CCCCN)NC(=O)[C@H](CCCCN)NC(=O)[C@@H](N)CSSC[C@@H](C(=O)O)NC1=O (H-CKKNSPALC-OH; disulfide 1-9) | 61.2 | 79.7
12 | C[C@@H](O)[C@@H]1NC(=O)[C@@H]2CCCN2C(=O)[C@H](CO)NC(=O)[C@H](CC(N)=O)NC(=O)[C@H](CCCCN)NC(=O)[C@H](CCCCN)NC(=O)[C@@H](N)CSSC[C@@H](C(=O)O)NC(=O)[C@H](Cc2c[nH]cn2)NC1=O (H-CKKNSPTHC-OH; disulfide 1-9) | 71.5 | 62.6
13 | CC(C)C[C@@H]1NC(=O)[C@H]([C@@H](C)O)NC(=O)[C@@H]2CCCN2C(=O)[C@H](C)NC(=O)[C@H](CC(N)=O)NC(=O)[C@H](CCCCN)NC(=O)[C@H](CCCCN)NC(=O)[C@@H](N)CSSC[C@@H](C(=O)O)NC1=O (H-CKKNAPTLC-OH; disulfide 1-9) | 74.5 | 99.4
14 | CC(C)C[C@@H]1NC(=O)[C@H](CCCNC(=N)N)NC(=O)[C@@H]2CCCN2C(=O)[C@H](CO)NC(=O)[C@H](CC(N)=O)NC(=O)[C@H](CCCCN)NC(=O)[C@H](CCCCN)NC(=O)[C@@H](N)CSSC[C@@H](C(=O)O)NC1=O (H-CKKNSPRLC-OH; disulfide 1-9) | 92.6 | 76.7
15 | CC(C)C[C@@H]1NC(=O)[C@H](CO)NC(=O)[C@H](CC(N)=O)NC(=O)[C@H](CCCCN)NC(=O)[C@H](CCCCN)NC(=O)[C@@H](N)CSSC[C@@H](C(=O)O)NC(=O)[C@H](CC(C)C)NC(=O)[C@H]([C@@H](C)O)NC1=O (H-CKKNSLTLC-OH; disulfide 1-9) | 68.9 | 66.1
16 | CC(C)C[C@@H]1NC(=O)[C@H](CO)NC(=O)[C@@H]2CCCN2C(=O)[C@H](CO)NC(=O)[C@H](CC(N)=O)NC(=O)[C@H](CCCCN)NC(=O)[C@H](CCCCN)NC(=O)[C@@H](N)CSSC[C@@H](C(=O)O)NC1=O (H-CKKNSPSLC-OH; disulfide 1-9) | 93.8 | 69.4
17 | CC(C)C[C@@H]1NC(=O)[C@H]([C@@H](C)O)NC(=O)[C@@H]2CCCN2C(=O)[C@H](CO)NC(=O)[C@H](CC(N)=O)NC(=O)[C@H](CCCCN)NC(=O)[C@H](CCCCN)NC(=O)[C@@H](N)CSSC[C@@H](C(=O)O)NC1=O (H-CKKNSPTLC-OH; disulfide 1-9) | 66.4 | 57.5
